Assay results taken from patent US10071957B2, “N-substituted benzamides and methods of use thereof” (GENENTECH, INC., priority 2012, dated 2018).

target: hNaV1.7 (Homo sapiens (Human), UniProt Q15858); assay: Competitive binding of tritiated compound to membranes from cells expressing hNav1.7 and the β1 subunit; conditions: 100 pM [3H]compound, 18 h, room temperature; read-out: NaV1.7 395 Membrane Binding IC50
Method: Tritiated compound binding to membranes isolated from cells that heterologously express hNav1.7 and the β1 subunit
Preparation of membranes containing recombinantly expressed sodium channels: Frozen recombinant cell pellets were thawed on ice and diluted to 4 times the cell pellet weight with ice cold 50 mM Tris HCl, pH 7.4 buffer. The cell suspensions were homogenized on ice using a motorized glass dounce homogeniser. Homogenates were further diluted 8.4 times with ice cold 50 mM Tris HCl, pH 7.4 buffer and then centrifuged at 200×g at 4° C. for 15 min. The supernatants were collected and centrifuged at 10000×g at 4° C. for 50 min. The pellets were then re-suspended in 100 mM NaCl, 20 mM Tris HCl, pH 7.4 buffer containing 1% v/v protease inhibitors (Calbiochem) and re-homogenized on ice. The homogenized membranes were then processed through a syringe equipped with a 26 gauge needle. Protein concentrations were determined by Bradford Assay and the membranes were stored at −80° C.
Radioligand Binding Studies: Saturation experiments. A representative compound of formula (I) was tritiated. Three tritiums were incorporated in place of methyl hydrogens to generate [^3H]compound. Binding of this radioligand was performed in 5 mL borosilicate glass test tubes at room temperature. Binding was initiated by adding membranes to increasing concentrations of [^3H]compound in 100 mM NaCl, 20 mM Tris HCl, pH 7.4 buffer containing 0.01% w/v bovine serum albumin (BSA) for 18 h. Non-specific binding was determined in the presence of 1 μM unlabelled compound. After 18 h, the reactants were filtered through GF/C glass fiber filters presoaked in 0.5% w/v polyethylene imine. Filters were washed with 15 mL ice cold 100 mM NaCl, 20 mM Tris HCl, pH 7.4 buffer containing 0.25% BSA to separate bound from free ligand. [^3H]compound bound to filters was quantified by liquid scintillation counting.
Competitive binding experiments. Binding reactions were performed in 96-well polypropylene plates at room temperature for 18 h. In 360 μL, membranes were incubated with 100 pM [^3H]compound and increasing concentrations of Test Compound. Non-specific binding was defined in the presence of 1 μM unlabelled compound. Reactions were transferred and filtered through 96-well glass fiber/C filter plates presoaked with 0.5% polyethylene imine. The filtered reactions were washed 5 times with 200 μL ice cold buffer containing 0.25% BSA. Bound radioactivity was determined by liquid scintillation counting.
Data Analysis: For saturation experiments, non-specific binding was subtracted from total binding to provide specific binding and these values were recalculated in terms of pmol ligand bound per mg protein. Saturation curves were constructed and dissociation constants were calculated using the single site ligand binding model: Beq=(Bmax*X)/(X+Kd), where Beq is the amount of ligand bound at equilibrium, Bmax is the maximum receptor density, Kd is the dissociation constant for the ligand, and X is the free ligand concentration. For competition studies percent inhibition was determined and IC50 values were calculated using a 4 parameter logistic model (% inhibition=(A+((B−A)/(1+((x/C)^D)))) using XLfit, where A and B are the maximal and minimum inhibition respectively, C is the IC50 concentration and D is the (Hill) slope.

Sequence of hNaV1.7 (Q15858 whole entry, looked up): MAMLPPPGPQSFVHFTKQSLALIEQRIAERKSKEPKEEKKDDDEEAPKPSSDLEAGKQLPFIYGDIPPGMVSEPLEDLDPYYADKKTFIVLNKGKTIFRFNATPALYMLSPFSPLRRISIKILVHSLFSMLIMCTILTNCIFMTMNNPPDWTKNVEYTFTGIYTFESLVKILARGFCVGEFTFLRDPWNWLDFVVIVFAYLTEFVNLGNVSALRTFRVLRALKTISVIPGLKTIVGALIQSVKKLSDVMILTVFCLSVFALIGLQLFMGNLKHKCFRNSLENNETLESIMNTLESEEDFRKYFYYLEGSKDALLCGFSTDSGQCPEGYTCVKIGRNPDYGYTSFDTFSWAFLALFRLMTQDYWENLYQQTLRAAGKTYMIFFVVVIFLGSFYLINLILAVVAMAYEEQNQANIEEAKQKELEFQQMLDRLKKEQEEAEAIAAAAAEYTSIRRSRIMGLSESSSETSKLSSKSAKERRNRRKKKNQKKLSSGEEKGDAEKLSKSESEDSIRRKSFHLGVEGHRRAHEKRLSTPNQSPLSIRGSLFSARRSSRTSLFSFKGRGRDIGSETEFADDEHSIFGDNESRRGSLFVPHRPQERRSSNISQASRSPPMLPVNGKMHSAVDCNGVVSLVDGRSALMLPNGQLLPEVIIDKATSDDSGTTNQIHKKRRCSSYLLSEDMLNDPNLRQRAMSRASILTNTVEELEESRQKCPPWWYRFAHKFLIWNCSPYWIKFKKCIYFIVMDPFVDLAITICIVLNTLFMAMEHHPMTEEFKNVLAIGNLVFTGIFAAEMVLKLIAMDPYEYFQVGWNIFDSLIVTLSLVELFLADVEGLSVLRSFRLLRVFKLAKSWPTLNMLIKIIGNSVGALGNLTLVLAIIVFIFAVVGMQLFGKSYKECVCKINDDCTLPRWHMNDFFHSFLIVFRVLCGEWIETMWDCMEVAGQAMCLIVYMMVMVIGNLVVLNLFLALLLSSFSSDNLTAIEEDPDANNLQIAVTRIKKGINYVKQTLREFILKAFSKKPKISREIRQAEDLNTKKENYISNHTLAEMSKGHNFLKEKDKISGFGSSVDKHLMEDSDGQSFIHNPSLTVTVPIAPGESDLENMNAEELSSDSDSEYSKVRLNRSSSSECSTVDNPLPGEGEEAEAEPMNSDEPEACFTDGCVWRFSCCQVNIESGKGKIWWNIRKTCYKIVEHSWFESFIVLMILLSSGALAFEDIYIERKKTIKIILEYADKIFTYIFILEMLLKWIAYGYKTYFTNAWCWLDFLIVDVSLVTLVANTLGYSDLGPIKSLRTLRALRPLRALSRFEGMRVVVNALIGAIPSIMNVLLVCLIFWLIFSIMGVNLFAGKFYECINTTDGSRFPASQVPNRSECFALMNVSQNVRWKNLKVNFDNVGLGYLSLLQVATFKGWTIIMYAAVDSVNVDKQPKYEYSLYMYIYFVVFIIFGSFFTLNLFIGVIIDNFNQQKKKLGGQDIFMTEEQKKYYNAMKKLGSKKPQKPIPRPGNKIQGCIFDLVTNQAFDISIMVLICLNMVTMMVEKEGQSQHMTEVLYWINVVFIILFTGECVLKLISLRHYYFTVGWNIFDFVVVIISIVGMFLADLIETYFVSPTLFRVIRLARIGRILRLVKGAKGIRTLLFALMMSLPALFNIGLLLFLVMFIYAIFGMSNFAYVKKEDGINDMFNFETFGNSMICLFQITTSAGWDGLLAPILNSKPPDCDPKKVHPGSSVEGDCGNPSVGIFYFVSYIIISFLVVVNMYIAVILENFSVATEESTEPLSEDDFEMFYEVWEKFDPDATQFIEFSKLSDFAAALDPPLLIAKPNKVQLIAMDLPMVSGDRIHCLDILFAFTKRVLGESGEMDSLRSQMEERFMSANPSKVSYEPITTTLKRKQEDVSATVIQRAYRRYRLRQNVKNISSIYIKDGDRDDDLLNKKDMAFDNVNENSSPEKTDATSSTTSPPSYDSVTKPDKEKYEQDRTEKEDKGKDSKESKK
Sequence of hNaV1.7 (Q07699 whole entry partner, looked up): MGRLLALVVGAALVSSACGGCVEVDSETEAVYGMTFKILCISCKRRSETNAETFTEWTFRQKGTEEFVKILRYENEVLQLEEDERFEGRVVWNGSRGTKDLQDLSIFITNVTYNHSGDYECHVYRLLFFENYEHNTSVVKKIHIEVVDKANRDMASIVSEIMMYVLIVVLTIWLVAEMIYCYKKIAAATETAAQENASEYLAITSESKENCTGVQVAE

Row | SMILES | IC50 [nM]
1 | Cc1cc2cc(Oc3cc(F)c(C(=O)NS(=O)(=O)N(C)C)cc3Cl)ccc2[nH]1 [Preparation 59, 5-chloro-N-(N,N-dimethylsulfamoyl)-2-fluoro-4-((2-methyl-1H-indol-5-yl)oxy) benzamide] | 5200
2 | CN(C)S(=O)(=O)NC(=O)c1cc(Cl)c(Oc2cccc3cnccc23)cc1F [Preparation 60, 5-chloro-N-(N,N-dimethylsulfamoyl)-2-fluoro-4-(isoquinolin-5-yloxy)benzamide] | 20000
3 | CN(C)S(=O)(=O)NC(=O)c1cc(Cl)c(Oc2ccc(S(C)(=O)=O)cc2)cc1F [Preparation 61, 5-chloro-N-(N,N-dimethylsulfamoyl)-2-fluoro-4-(4-(methyl-sulfonyl)phenoxy) benzamide] | 20000
4 | CN(C)S(=O)(=O)NC(=O)c1cc(Cl)c(Oc2ccc3cnn(C)c3c2)cc1F [Preparation 62, 5-chloro-N-(N,N-dimethylsulfamoyl)-2-fluoro-4-((1-methyl-1H-indazol-6-yl)oxy) benzamide] | 14000
5 | CN(C)S(=O)(=O)NC(=O)c1cc(Cl)c(Oc2cnc(N3CCCCC3)c(Cl)c2)cc1F [Preparation 63, 5-chloro-4-((5-chloro-6-(piperidin-1-yl)pyridin-3-yl)oxy)-N-(N,N-dimethyl-sulfamoyl)-2-fluoro-benzamide] | 140
6 | Cc1nc2ccc(Oc3cc(F)c(C(=O)NS(=O)(=O)N(C)C)cc3Cl)cc2s1 [Preparation 64, 5-chloro-N-(N,N-dimethylsulfamoyl)-2-fluoro-4-((2-methyl-benzo[d]thiazol-6-yl)oxy)benzamide] | 1900
7 | CC(C)COc1ncc(Oc2cc(F)c(C(=O)NS(=O)(=O)N(C)C)cc2C#N)cc1Cl [Preparation 65, 4-((5-chloro-6-iso-butoxypyridin-3-yl)oxy)-5-cyano-N-(N,N-dimethylsulfamoyl)-2-fluorobenzamide] | 93
8 | O=C(NS(=O)(=O)N1CCCC1)c1cc(Cl)c(Oc2cnc(OCC(F)(F)C(F)F)c(Cl)c2)cc1F [Preparation 66, 5-chloro-4-((5-chloro-6-(2,2,3,3-tetrafluoro-propoxy)pyridin-3-yl)oxy)-2-fluoro-N-(pyrrolidin-1-ylsulfonyl)benzamide] | 26
9 | O=C(NS(=O)(=O)c1cccnc1)c1cc(Cl)c(Oc2cnc(OCC(F)(F)C(F)F)c(Cl)c2)cc1F [Preparation 69, 5-chloro-4-((5-chloro-6-(2,2,3,3-tetrafluoro-propoxy)pyridin-3-yl)oxy)-2-fluoro-N-(pyridin-3-ylsulfonyl) benzamide] | 950
10 | CN(C)S(=O)(=O)NC(=O)c1cc(Cl)c(Oc2cc(OC(F)(F)F)ccc2F)cc1F [Preparation 70, 5-chloro-N-(N,N-dimethylsulfamoyl)-2-fluoro-4-(2-fluoro-5-(trifluoromethoxy)phenoxy)benzamide] | 340
11 | CN(C)S(=O)(=O)NC(=O)c1cc(Cl)c(Oc2cccc3ncccc23)cc1F [Preparation 71, 5-chloro-N-(N,N-dimethylsulfamoyl)-2-fluoro-4-(quinolin-5-yloxy)benzamide] | 20000
12 | CN(C)S(=O)(=O)NC(=O)c1cc(Cl)c(Oc2ccc3ncccc3c2)cc1F [Preparation 72, 5-chloro-N-(N,N-dimethylsulfamoyl)-2-fluoro-4-(quinolin-6-yloxy)benzamide] | 9600
13 | CN(C)S(=O)(=O)NC(=O)c1cc(Cl)c(Oc2ccc3ccncc3c2)cc1F [Preparation 73, 5-chloro-N-(N,N-dimethylsulfamoyl)-2-fluoro-4-(isoquinolin-7-yloxy)benzamide] | 20000
14 | Cc1cc(Oc2cc(F)c(C(=O)NS(=O)(=O)N(C)C)cc2Cl)cc(C)c1C#N [Preparation 74, 5-chloro-4-(4-cyano-3,5-dimethylphenoxy)-N-(N,N-dimethyl-sulfamoyl)-2-fluoro-benzamide] | 11000
15 | CC(C)COc1ncc(Oc2cc(F)c(C(=O)NS(N)(=O)=O)cc2C#N)cc1Cl [Preparation 75, 4-((5-chloro-6-iso-butoxypyridin-3-yl)oxy)-5-cyano-2-fluoro-N-sulfamoyl-benzamide] | 290
16 | CNS(=O)(=O)NC(=O)c1cc(Cl)c(COc2cnc(OC(C)C)c(Cl)c2)cc1F [Preparation 77] | 140
17 | CNS(=O)(=O)NC(=O)c1cc(Cl)c(COc2ccc(Cl)c(C(F)(F)F)c2)cc1F [Preparation 78] | 35

Row | SMILES | IC50 [nM]
18 | O=C(NS(=O)(=O)N1CCC1)c1cc(Cl)c(COc2ccc(OC(F)(F)F)c(Cl)c2)cc1F [Preparation 79] | 17
19 | O=C(NS(=O)(=O)N1CCC1)c1ccc(Oc2ccc(OC(F)(F)F)c(Cl)c2)c(C2(O)COC2)c1 [Preparation 81] | 20200
20 | CNS(=O)(=O)NC(=O)c1ccc(Oc2cnc(OC(C)C)c(Cl)c2)c(-c2cccnc2OC)c1 [Preparation 83] | 43
21 | O=C(NS(=O)(=O)N1CCC1)c1cc(Cl)c(COc2ccc(Cl)c(C(F)(F)F)c2)cc1F [Preparation 85] | 26
22 | CC(C)Oc1ncc(Oc2cc(F)c(C(=O)NS(=O)(=O)N3CCC3)cc2C2(F)COC2)cc1Cl [Preparation 88] | 44
23 | CC(C)Oc1ncc(Oc2cc(F)c(C(=O)NS(=O)(=O)N3CCC3)cc2C2(O)COC2)cc1Cl [Preparation 89] | 1300
24 | CNS(=O)(=O)NC(=O)c1cc(C2CC2)c(Oc2cnc(OC(C)C)c(Cl)c2)cc1F [Preparation 90] | 6
25 | O=C(NS(=O)(=O)N1CCC1)c1cc(Cl)c(Oc2cnc(OCC(F)(F)F)c(Cl)c2)cc1F [Preparation 93] | 16
26 | O=C(NS(=O)(=O)N1CCC1)c1cc(C2CC2)c(Oc2cnc(OCC(F)(F)F)c(Cl)c2)cc1F [Preparation 94] | 9
27 | O=C(NS(=O)(=O)N1CCC1)c1cc(C2CC2)c(COc2cc(Cl)cc(OC(F)(F)F)c2)cc1F [Preparation 95] | 2
28 | O=C(NS(=O)(=O)N1CCC1)c1cc(C2CC2)c(COc2cc(Cl)cc(Cl)c2)cc1F [Preparation 96] | 0.3
29 | COc1ncccc1-c1cc(C(=O)NS(=O)(=O)N2CCC2)ccc1Oc1ccc(OC(F)(F)F)c(Cl)c1 [Preparation 97] | 52
30 | O=C(NS(=O)(=O)N1CCC1)c1cc(C2CC2)c(COc2ccc(Cl)c(Cl)c2)cc1F [Preparation 98] | 9
31 | O=C(NS(=O)(=O)N1CCC1)c1cc(Cl)c(COc2ccc(Cl)c(Cl)c2)cc1F [Preparation 99] | 51
32 | CNS(=O)(=O)NC(=O)c1cc(Cl)c(COc2ccc(OC(F)(F)F)c(Cl)c2)cc1F [Preparation 100] | 43
33 | O=C(NS(=O)(=O)N1CCC1)c1cc(Cl)c(COc2cnc(OCC(F)(F)C(F)F)c(Cl)c2)cc1F [Preparation 101] | 68
